Measured values as given in patent publication US4868321A, “Isothiocyanate intermediates” (FMC Corporation, priority 1988, dated 1989).
Where a name gives a salt, the structure may show the parent alone.

Legend:
Format in all cases: in vivo
Cotton [1] = experiment: Preemergence Herbicidal Activity, Cotton; conditions: Gossypium hirsutum, pre-emergence; for plant injury at 2000 g/ha: 2.0 kg/ha
Summary of the method: (§1)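 Percent control scored after pre- or postemergence treatment at rates in kg/ha, using test compounds generally formulated in 50/50 acetone/water.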

Soybean [2] = experiment: Preemergence Herbicidal Activity, Soybean; conditions: Glycine max, pre-emergence; for plant injury at 2000 g/ha: 2.0 kg/ha
Summary of the method: (§2)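 Kilogram-per-hectare application rates; outcome scored by percent control of treated plants.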

Field Corn [3] = experiment: Preemergence Herbicidal Activity, Field Corn; conditions: Zea mays, pre-emergence; for plant injury at 2000 g/ha: 2.0 kg/ha
Summary of the method: as §2

Rice [4] = experiment: Preemergence Herbicidal Activity, Rice; conditions: Oryza sativa, pre-emergence; for plant injury at 2000 g/ha: 2.0 kg/ha
Summary of the method: as §2

Wheat [5] = experiment: Preemergence Herbicidal Activity, Wheat; conditions: Triticum aestivum, pre-emergence; for plant injury at 2000 g/ha: 2.0 kg/ha
Summary of the method: as §2

Field Bindweed [6] = experiment: Preemergence Herbicidal Activity, Field Bindweed; conditions: pre-emergence; for pest or weed control at 2000 g/ha: 2.0 kg/ha
Summary of the method: as §1

Morningglory [7] = experiment: Preemergence Herbicidal Activity, Morningglory; conditions: Ipomoea, pre-emergence; for pest or weed control at 2000 g/ha: 2.0 kg/ha
Summary of the method: as §1

Velvetleaf [8] = experiment: Preemergence Herbicidal Activity, Velvetleaf; conditions: Abutilon theophrasti, pre-emergence; for pest or weed control at 2000 g/ha: 2.0 kg/ha
Summary of the method: as §1

Barnyardgrass [9] = experiment: Preemergence Herbicidal Activity, Barnyardgrass; conditions: Echinochloa crus-galli, pre-emergence; for pest or weed control at 2000 g/ha: 2.0 kg/ha
Summary of the method: (§3)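 Application rate is expressed per hectare in kilograms. Values are percent control.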

Green Foxtail [10] = experiment: Preemergence Herbicidal Activity, Green Foxtail; conditions: Setaria viridis, pre-emergence; for pest or weed control at 2000 g/ha: 2.0 kg/ha
Summary of the method: as §3

Johnsongrass [11] = experiment: Preemergence Herbicidal Activity, Johnsongrass; conditions: Sorghum halepense, pre-emergence; for pest or weed control at 2000 g/ha: 2.0 kg/ha
Summary of the method: as §3

Cotton [12] = experiment: Postemergence Herbicidal Activity, Cotton; conditions: Gossypium hirsutum, post-emergence; for plant injury at 2000 g/ha: 2.0 kg/ha
Summary of the method: as §1

Soybean [13] = experiment: Postemergence Herbicidal Activity, Soybean; conditions: Glycine max, post-emergence; for plant injury at 2000 g/ha: 2.0 kg/ha
Summary of the method: as §2

Field Corn [14] = experiment: Postemergence Herbicidal Activity, Field Corn; conditions: Zea mays, post-emergence; for plant injury at 2000 g/ha: 2.0 kg/ha
Summary of the method: as §2

Rice [15] = experiment: Postemergence Herbicidal Activity, Rice; conditions: Oryza sativa, post-emergence; for plant injury at 2000 g/ha: 2.0 kg/ha
Summary of the method: as §2

Wheat [16] = experiment: Postemergence Herbicidal Activity, Wheat; conditions: Triticum aestivum, post-emergence; for plant injury at 2000 g/ha: 2.0 kg/ha
Summary of the method: as §2

Field Bindweed [17] = experiment: Postemergence Herbicidal Activity, Field Bindweed; conditions: post-emergence; for pest or weed control at 2000 g/ha: 2.0 kg/ha
Summary of the method: as §1

Morningglory [18] = experiment: Postemergence Herbicidal Activity, Morningglory; conditions: Ipomoea, post-emergence; for pest or weed control at 2000 g/ha: 2.0 kg/ha
Summary of the method: as §1

Velvetleaf [19] = experiment: Postemergence Herbicidal Activity, Velvetleaf; conditions: Abutilon theophrasti, post-emergence; for pest or weed control at 2000 g/ha: 2.0 kg/ha
Summary of the method: as §1

Barnyardgrass [20] = experiment: Postemergence Herbicidal Activity, Barnyardgrass; conditions: Echinochloa crus-galli, post-emergence; for pest or weed control at 2000 g/ha: 2.0 kg/ha
Summary of the method: as §3

Green Foxtail [21] = experiment: Postemergence Herbicidal Activity, Green Foxtail; conditions: Setaria viridis, post-emergence; for pest or weed control at 2000 g/ha: 2.0 kg/ha
Summary of the method: as §3

Johnsongrass [22] = experiment: Postemergence Herbicidal Activity, Johnsongrass; conditions: Sorghum halepense, post-emergence; for pest or weed control at 2000 g/ha: 2.0 kg/ha
Summary of the method: as §3

CCCS(=O)(=O)Nc1cc(-n2nnn(CCCF)c2=O)c(F)cc1Cl [Compound 28, 1-[4-Chloro-2-fluoro-5-(N--propylsulfonylamino)phenyl]-1,4-dihydro-4-(3-fluoropropyl)-5H--tetrazol-5-one]
plant injury at 500 g/ha (Cotton [1]; 0.5 kg/ha): 100%
plant injury at 500 g/ha (Soybean [2]; 0.5 kg/ha): 0%
plant injury at 500 g/ha (Field Corn [3]; 0.5 kg/ha): 30%
plant injury at 500 g/ha (Rice [4]; 0.5 kg/ha): 70%
plant injury at 500 g/ha (Wheat [5]; 0.5 kg/ha): 30%
pest or weed control at 500 g/ha (Field Bindweed [6]; 0.5 kg/ha): 100%
pest or weed control at 500 g/ha (Morningglory [7]; 0.5 kg/ha): 100%
pest or weed control at 500 g/ha (Velvetleaf [8]; 0.5 kg/ha): 100%
pest or weed control at 500 g/ha (Barnyardgrass [9]; 0.5 kg/ha): 95%
pest or weed control at 500 g/ha (Green Foxtail [10]; 0.5 kg/ha): 90%
pest or weed control at 500 g/ha (Johnsongrass [11]; 0.5 kg/ha): 70%
plant injury at 500 g/ha (Cotton [12]; 0.5 kg/ha): 100%
plant injury at 500 g/ha (Soybean [13]; 0.5 kg/ha): 30%
plant injury at 500 g/ha (Field Corn [14]; 0.5 kg/ha): 40%
plant injury at 500 g/ha (Rice [15]; 0.5 kg/ha): 70%
plant injury at 500 g/ha (Wheat [16]; 0.5 kg/ha): 60%
pest or weed control at 500 g/ha (Field Bindweed [17]; 0.5 kg/ha): 100%
pest or weed control at 500 g/ha (Morningglory [18]; 0.5 kg/ha): 100%
pest or weed control at 500 g/ha (Velvetleaf [19]; 0.5 kg/ha): 100%
pest or weed control at 500 g/ha (Barnyardgrass [20]; 0.5 kg/ha): 100%
pest or weed control at 500 g/ha (Green Foxtail [21]; 0.5 kg/ha): 100%
pest or weed control at 500 g/ha (Johnsongrass [22]; 0.5 kg/ha): 95%

CCCn1nnn(-c2cc(NS(=O)(=O)CC)c(Cl)cc2F)c1=O [Compound 51, 1-[4-Chloro-2-fluoro-5-(N--ethylsulfonylamino)phenyl]-4,5-dihydro-4-propyl-5H--tetrazol-5-one]
plant injury at 2000 g/ha (Cotton [1]): 100%
plant injury at 2000 g/ha (Soybean [2]): 20%
plant injury at 2000 g/ha (Field Corn [3]): 70%
plant injury at 2000 g/ha (Rice [4]): 30%
plant injury at 2000 g/ha (Wheat [5]): 20%
pest or weed control at 2000 g/ha (Field Bindweed [6]): 100%
pest or weed control at 2000 g/ha (Morningglory [7]): 100%
pest or weed control at 2000 g/ha (Velvetleaf [8]): 100%
pest or weed control at 2000 g/ha (Barnyardgrass [9]): 70%
pest or weed control at 2000 g/ha (Green Foxtail [10]): 95%
pest or weed control at 2000 g/ha (Johnsongrass [11]): 10%
plant injury at 2000 g/ha (Cotton [12]): 100%
plant injury at 2000 g/ha (Soybean [13]): 70%
plant injury at 2000 g/ha (Field Corn [14]): 60%
plant injury at 2000 g/ha (Rice [15]): 60%
plant injury at 2000 g/ha (Wheat [16]): 70%
pest or weed control at 2000 g/ha (Field Bindweed [17]): 100%
pest or weed control at 2000 g/ha (Morningglory [18]): 100%
pest or weed control at 2000 g/ha (Velvetleaf [19]): 100%
pest or weed control at 2000 g/ha (Barnyardgrass [20]): 80%
pest or weed control at 2000 g/ha (Green Foxtail [21]): 80%
pest or weed control at 2000 g/ha (Johnsongrass [22]): 70%

O=c1n(CCCF)nnn1-c1cc(NS(=O)(=O)C(F)(F)F)c(Cl)cc1F [Compound 32, 1-[4-Chloro-2-fluoro-5-(N--trifluoromethylsulfonylamino)phenyl]-1,4-dihydro-4-(3-fluoropropyl)-5H--tetrazol-5-one potassium salt]
plant injury at 2000 g/ha (Cotton [1]): 100%
plant injury at 2000 g/ha (Soybean [2]): 40%
plant injury at 2000 g/ha (Field Corn [3]): 50%
plant injury at 2000 g/ha (Rice [4]): 95%
plant injury at 2000 g/ha (Wheat [5]): 10%
pest or weed control at 2000 g/ha (Field Bindweed [6]): 100%
pest or weed control at 2000 g/ha (Morningglory [7]): 100%
pest or weed control at 2000 g/ha (Velvetleaf [8]): 100%
pest or weed control at 2000 g/ha (Barnyardgrass [9]): 95%
pest or weed control at 2000 g/ha (Green Foxtail [10]): 60%
pest or weed control at 2000 g/ha (Johnsongrass [11]): 80%
plant injury at 2000 g/ha (Cotton [12]): 100%
plant injury at 2000 g/ha (Soybean [13]): 100%
plant injury at 2000 g/ha (Field Corn [14]): 70%
plant injury at 2000 g/ha (Rice [15]): 40%
plant injury at 2000 g/ha (Wheat [16]): 40%
pest or weed control at 2000 g/ha (Field Bindweed [17]): 100%
pest or weed control at 2000 g/ha (Morningglory [18]): 100%
pest or weed control at 2000 g/ha (Velvetleaf [19]): 100%
pest or weed control at 2000 g/ha (Barnyardgrass [20]): 70%
pest or weed control at 2000 g/ha (Green Foxtail [21]): 40%
pest or weed control at 2000 g/ha (Johnsongrass [22]): 70%
